Results taken from ChEMBL document CHEMBL1201862, “PubChem BioAssay data set” (2004).
Values belong to the molecule of their own block, whether it stands above or below them. Activity calls are given as the source filed them.

Assays:
Paired box protein Pax-8 = Paired box protein Pax-8 (Homo sapiens, UniProt Q06710); experiment: inhibitors of PAX8-driven TPO luciferase reporter, dose response, RMG-I cells, cherry-pick (AID 687027); assay type: functional, cell-based;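 further: luciferase reporter driven by Pax8 target thyroperoxidase promoter measured by SteadyGlo luminescence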
Paired box protein Pax-8, sequence (Q06710 whole entry): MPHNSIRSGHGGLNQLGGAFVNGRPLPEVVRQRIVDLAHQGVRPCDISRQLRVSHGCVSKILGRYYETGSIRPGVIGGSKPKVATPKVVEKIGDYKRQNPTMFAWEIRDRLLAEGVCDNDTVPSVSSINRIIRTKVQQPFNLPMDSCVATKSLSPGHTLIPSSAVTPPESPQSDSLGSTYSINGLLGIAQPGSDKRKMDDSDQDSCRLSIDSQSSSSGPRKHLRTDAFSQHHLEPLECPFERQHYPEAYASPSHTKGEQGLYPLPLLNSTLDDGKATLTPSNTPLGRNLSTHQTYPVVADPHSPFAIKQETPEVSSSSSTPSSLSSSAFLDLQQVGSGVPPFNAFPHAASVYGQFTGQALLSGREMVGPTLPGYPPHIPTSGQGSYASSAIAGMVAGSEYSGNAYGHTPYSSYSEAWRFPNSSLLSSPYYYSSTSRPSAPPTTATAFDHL

[1] = IOSE-T80 ovarian epithelial cell cytotoxicity, dose response, cytotoxicity control for PAX8 inhibitor project, plate reader, dry powder samples (AID 743045); assay type: functional, cell-based
[2] = NIH:OVCAR-3 ovarian cancer cell cytotoxicity, dose response, PAX8 inhibitor project, plate reader, dry powder samples (AID 743044); assay type: functional, cell-based
[3] = IGROV1 ovarian cancer cell cytotoxicity, dose response, PAX8 inhibitor project, plate reader, dry powder samples (AID 743043); assay type: functional, cell-based; settings: IGROV-1
[4] = cytotoxicity in OVCAR8 ovarian cancer cells, dose response, PAX8 project, cell-based, plate reader, dry powder samples (AID 743197); assay type: functional; settings: OVCAR-8
Caspase-6 = Caspase-6 (Homo sapiens, UniProt P55212); experiment: human caspase-6 inhibitors, dose response, biochemical, VEID-R110 fluorescence, cherry-pick (AID 720632)
Caspase-6, sequence (P55212 24-179 limits assumed): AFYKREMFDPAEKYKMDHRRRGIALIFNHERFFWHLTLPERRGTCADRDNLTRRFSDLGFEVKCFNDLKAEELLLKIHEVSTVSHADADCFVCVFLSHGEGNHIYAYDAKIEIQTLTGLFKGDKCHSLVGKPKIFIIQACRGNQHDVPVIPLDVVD
Caspase-6, sequence (P55212 194-293 limits assumed): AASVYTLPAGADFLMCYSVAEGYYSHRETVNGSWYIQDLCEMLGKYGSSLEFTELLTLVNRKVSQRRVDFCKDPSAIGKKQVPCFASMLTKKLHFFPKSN

Caspase-7 = Caspase-7 (Homo sapiens, UniProt P55210); experiment: human caspase-7 inhibitors, dose response, selectivity assay for caspase-6 inhibitor project, biochemical, DEVD-R110 fluorescence, cherry-pick (AID 743295)
Caspase-7, sequence (P55210 24-198 limits assumed): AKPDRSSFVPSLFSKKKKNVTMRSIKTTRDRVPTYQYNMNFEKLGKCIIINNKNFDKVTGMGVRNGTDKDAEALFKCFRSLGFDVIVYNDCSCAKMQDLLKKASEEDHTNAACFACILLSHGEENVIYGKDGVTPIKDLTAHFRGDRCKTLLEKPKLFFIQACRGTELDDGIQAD
Caspase-7, sequence (P55210 207-303 limits assumed): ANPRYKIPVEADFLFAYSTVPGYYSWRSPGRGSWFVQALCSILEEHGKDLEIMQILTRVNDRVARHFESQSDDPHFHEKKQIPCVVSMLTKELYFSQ

Caspase-8 = Caspase-8 (Homo sapiens, UniProt Q14790); experiment: caspase-8 inhibition counter-screen, dose response, selectivity assay for caspase-6 inhibitor project, biochemical, Z-IETD-R110 fluorescence, cherry-picked samples (AID 743294)
Caspase-8, sequence (Q14790 217-374 limits assumed): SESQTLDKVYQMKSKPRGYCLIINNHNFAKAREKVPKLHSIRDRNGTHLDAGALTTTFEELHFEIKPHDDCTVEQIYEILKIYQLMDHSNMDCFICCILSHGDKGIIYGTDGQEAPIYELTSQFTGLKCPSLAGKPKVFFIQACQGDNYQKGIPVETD
Caspase-8, sequence (Q14790 385-479 limits assumed): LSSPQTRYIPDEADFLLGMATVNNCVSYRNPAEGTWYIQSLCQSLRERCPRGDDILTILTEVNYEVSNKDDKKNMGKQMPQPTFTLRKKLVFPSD

Protein Tat = Protein Tat (Human immunodeficiency virus type 1 group M subtype B (isolate HXB2)(HIV-1), UniProt P04608); assay type: functional;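 further: tat binding to TAR RNA read out by fluorescence polarization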
Protein Tat, sequence (P04608 whole entry): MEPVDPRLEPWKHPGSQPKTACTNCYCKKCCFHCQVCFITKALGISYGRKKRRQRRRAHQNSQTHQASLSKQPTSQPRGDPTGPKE

[5] = THP-1 cell cytotoxicity, dose response, cytotoxicity control for Vif-APOBEC3G degradation inhibitor project, THP-1 cells (AID 1117359); assay type: functional; settings: Human immunodeficiency virus 1, THP-1
cells [6] = assay type: functional, cell-based
cells [7] = assay type: functional, cell-based; remark: listed apart in the source
[8] = ADAM10 inhibitors, peptide cleavage, dose response, biochemical, QFRET (AID 743254);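 further: ADAM10 enzyme with the DM2 quenched FRET peptide as substrate; EDANS fluorescence gain as the protease cuts the substrate; inhibitor potency against ADAM10 proteolytic activity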
[9] = target: Disintegrin and metalloproteinase domain-containing protein 17 (Homo sapiens, UniProt P78536); experiment: ADAM17 protease inhibitors, dose response, counter-screen for ADAM10 exosite inhibitor project, biochemical, quenched FRET substrate (AID 743253)
Disintegrin and metalloproteinase domain-containing protein 17, sequence (P78536 whole entry, the tested form may be a part): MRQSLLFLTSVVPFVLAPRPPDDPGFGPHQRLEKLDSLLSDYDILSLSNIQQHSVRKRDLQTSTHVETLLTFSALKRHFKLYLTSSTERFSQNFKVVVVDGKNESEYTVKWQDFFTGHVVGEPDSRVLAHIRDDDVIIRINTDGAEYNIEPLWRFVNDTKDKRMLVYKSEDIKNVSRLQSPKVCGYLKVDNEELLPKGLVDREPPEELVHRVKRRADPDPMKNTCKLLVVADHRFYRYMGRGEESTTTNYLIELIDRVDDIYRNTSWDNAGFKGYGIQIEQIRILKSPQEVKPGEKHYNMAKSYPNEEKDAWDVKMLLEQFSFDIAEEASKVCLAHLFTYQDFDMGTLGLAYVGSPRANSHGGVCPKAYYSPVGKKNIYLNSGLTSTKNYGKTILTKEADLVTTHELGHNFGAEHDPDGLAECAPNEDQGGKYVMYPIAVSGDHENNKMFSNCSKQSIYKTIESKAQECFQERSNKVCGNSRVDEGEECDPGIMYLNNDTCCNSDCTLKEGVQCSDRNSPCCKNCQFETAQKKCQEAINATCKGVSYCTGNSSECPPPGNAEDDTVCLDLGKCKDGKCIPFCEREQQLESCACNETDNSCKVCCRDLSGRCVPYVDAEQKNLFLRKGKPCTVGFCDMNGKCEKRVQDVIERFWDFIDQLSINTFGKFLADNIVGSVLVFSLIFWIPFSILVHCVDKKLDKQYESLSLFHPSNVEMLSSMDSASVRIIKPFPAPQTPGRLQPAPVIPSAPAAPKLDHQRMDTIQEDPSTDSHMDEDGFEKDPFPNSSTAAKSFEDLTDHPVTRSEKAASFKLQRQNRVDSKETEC

Structure (SMILES): COc1cccc(S(=O)(=O)N2CC[C@@H]3[C@@H](CO)Nc4ccc(-c5ccccc5OC)cc4[C@@H]32)c1
- AC50 (Paired box protein Pax-8): 10.6 µM (active)
- AC50 [1]: 33 µM (active)
- AC50 [2]: 19.6 µM (active)
- AC50 [3]: 36.5 µM (active)
- AC50 [4]: 31.1 µM (active)

- AC50 (Caspase-6): 0.433 µM (active)
- AC50 (Caspase-7): > 70 µM (inactive)
- AC50 (Caspase-8): 28.1 µM (active)
- IC50 (Protein Tat): > 100 µM (active)
Structure (SMILES): O=C(c1cccc(-n2cccc2)c1)N1CCN(S(=O)(=O)c2ccccc2)CC1
- CC50 [5]: > 40 µM (active)

Structure (SMILES): COc1ccc(S(=O)(=O)N2CCC(c3cc(-c4cccc5ccccc45)[nH]n3)CC2)cc1
- EC50 (cells [6]): > 350 µM (not active)
- EC50 (cells [7]): > 350 µM (not active)
- IC50 [8]: > 69.5 µM (inactive)
- IC50 [9]: > 69.5 µM (inactive)
